The target in one assay is S1P3 (Homo sapiens (Human), UniProt Q99500). The assay can be described thus: 35S-GTPγS binding, membranes from CHO cells expressing S1P3. In kind it is biochemical. The note with it: 60 min 30° C., read-out: S1P3 GTPgs EC50. As to the method:
(§1) Receptor binding assay: Membranes were prepared from CHO cells expressing S1P1 or S1P3 for use in ligand and […] binding studies. Cells were suspended in 50 mM TRIS, pH 7.4, 2 mM EDTA, 250 mM Sucrose (buffer A) and 1× Complete protease inhibitor cocktail (Roche), and disrupted at 4° C. by nitrogen decompression using a cell disruption bomb (Parr Instrument). Following centrifugation at 1000 RPM for 10 min at 4° C., the supernatant was suspended in buffer A and centrifuged again at 19000 RPM for 60 min at 4° C. The pellet was then suspended in 10 mM HEPES, pH 7.4, 1 mM EDTA, 250 mM Sucrose (Buffer B), and 1× Complete EDTA-free protease inhibitor cocktail and homogenized using a potter. Membranes were flash frozen in liquid nitrogen and stored at −80° C. [33P]sphingosine 1-phosphate (3000 Ci/mmol; American Radiolabeled Chemicals, Inc.) was added to test compounds in DMSO. Membranes and WGA SPA beads (GE Healthcare) were added to give a final volume of 100 μl in 96-well plates with assay concentrations of 25 pM or 10 pM [33P]sphingosine 1-phosphate (respectively for S1P1 or S1P3), 50 mM HEPES, pH 7.5, 5 mM MgCl2, 100 mM NaCl, 0.4% fatty acid-free BSA, 1-5 μg/well of proteins and 100 μg/well of WGA SPA beads. Binding was performed for 60 min at room temperature on a shaker and bound radioactivity was measured on a PerkinElmer 1450 MicroBeta counter. Specific binding was calculated by subtracting remaining radioactivity in the presence of 1000-fold excess of unlabeled S1P. Binding data were analyzed using the GraphPad Prism program.
Measurements of ^35S-GTPγS Binding: Membranes (1 to 10 μg protein) prepared as described above, were incubated in 96-well Scintiplates (PerkinElmer) with test compounds diluted in DMSO, in 180 μl of 20 mM HEPES, pH 7.4, 10 mM MgCl2, 2 μg/well Saponin, 0.2% fatty acid free BSA (Assay buffer), 140 mM NaCl and 1.7 μM GDP. The assay was initiated with the addition of 20 μl of 1.5 nM [35S]-GTPγS (1100 Ci/mmol; GE Healthcare) in assay buffer. After 60 min incubation at 30° C. on a shaker, plates were centrifuged for 10 min at 2000 RPM. Supernatant was discarded and membrane bound radioactivity was measured on a PerkinElmer 1450 MicroBeta counter. Triplicate samples were averaged and expressed as % response relative to S1P activation in absence of compound (n=2).
(In general: Binding of GTPγS marks nucleotide exchange on a G protein.)

In assay [1] the target is T1, S1P1 (Homo sapiens (Human), UniProt P21453). Description: 35S-GTPγS binding, membranes from CHO cells expressing S1P1. The format is biochemical. The note with it: 60 min 30° C., read-out: S1P1 GTPgS EC50.
In assay [2] the target is T1, S1P1. The assay can be described thus: Receptor binding assay, [33P]sphingosine 1-phosphate, membranes from CHO cells expressing S1P1. The note with it: [33P]S1P 25 pM, SPA. The method, then:
as §1

T1 sequence (P21453 whole entry, species assumed): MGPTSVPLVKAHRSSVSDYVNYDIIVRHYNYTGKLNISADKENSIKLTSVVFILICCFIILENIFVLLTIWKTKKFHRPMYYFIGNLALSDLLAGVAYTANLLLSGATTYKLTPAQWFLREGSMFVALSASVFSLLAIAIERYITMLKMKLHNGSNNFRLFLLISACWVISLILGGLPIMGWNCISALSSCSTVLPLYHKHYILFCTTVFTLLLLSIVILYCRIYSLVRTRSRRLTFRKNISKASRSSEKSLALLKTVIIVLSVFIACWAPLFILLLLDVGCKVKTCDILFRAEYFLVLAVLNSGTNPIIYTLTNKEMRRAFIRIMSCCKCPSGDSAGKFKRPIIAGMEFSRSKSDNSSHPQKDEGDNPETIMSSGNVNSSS
Sequence of S1P3 (Q99500 whole entry, species assumed): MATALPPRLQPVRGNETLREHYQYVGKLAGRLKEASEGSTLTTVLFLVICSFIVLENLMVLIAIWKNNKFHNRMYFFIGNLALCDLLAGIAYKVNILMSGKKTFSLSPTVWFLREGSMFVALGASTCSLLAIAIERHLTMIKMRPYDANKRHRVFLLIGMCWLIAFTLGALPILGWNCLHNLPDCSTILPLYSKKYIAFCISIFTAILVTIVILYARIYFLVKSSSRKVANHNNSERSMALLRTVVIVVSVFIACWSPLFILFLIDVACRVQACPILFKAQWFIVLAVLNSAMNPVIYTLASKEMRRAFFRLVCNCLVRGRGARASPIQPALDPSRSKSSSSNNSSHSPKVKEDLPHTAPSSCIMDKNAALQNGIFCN

Take `COc1ccc(F)cc1-c1noc(-c2ccc(N3CCCCC3C)c(C#N)c2)n1` (stereo not drawn) [Compound I71, 5-[3-(5-fluoro-2-methoxyphenyl)-1,2,4-oxadiazol-5-yl]-2-(2-methylpiperidin-1-yl)benzonitrile]: the EC50 (commonly the concentration needed to bring the measured effect to its halfway point) on S1P3 was 74 nM; at S1P1 [1], 1 nM. Moreover, the Ki – broadly, a dissociation constant, usually derived from enzyme kinetics or from competition with a known ligand – at S1P1 [2] worked out at 4 nM.

As for `COc1ccccc1-c1noc(-c2ccc(-c3cscc3C)c(C(F)(F)F)c2)n1` [Compound I57, 3-(2-methoxyphenyl)-5-[4-(4-methyl-3-thienyl)-3-(trifluoromethyl)phenyl]-1,2,4-oxadiazole], the concentration for a half-maximal effect (EC50) on S1P3 was greater than 20000 nM; at S1P1 [1], 1 nM. On S1P1 [2], this molecule displayed a Ki of 2 nM.

Take `COc1ccccc1-c1noc(-c2ccc(CC(C)C)cc2)n1` [Compound I28, 5-(4-isobutylphenyl)-3-(2-methoxyphenyl)-1,2,4-oxadiazole]: the EC50 is greater than 30000 nM at S1P3 and 162 nM on S1P1 [1]. This molecule had a Ki at S1P1 [2] of 91 nM.

On to `COc1ccccc1-c1noc(-c2ccc(N3CCCCC3)c([N+](=O)[O-])c2)n1` [Compound I1, 1-{4-[3-(2-methoxyphenyl)-1,2,4-oxadiazol-5-yl]-2-nitrophenyl}piperidine], for which the EC50 was greater than 20000 nM at S1P3 and 27 nM at S1P1 [1]. This molecule returned a Ki at S1P1 [2] of 11 nM.

For `Cc1ccccc1-c1ccc(-c2nc(-c3ccccc3OC(F)(F)F)no2)cc1C` [Compound I21, 5-(2,2′-dimethylbiphenyl-4-yl)-3-[2-(trifluoromethoxy)phenyl]-1,2,4-oxadiazole], the results for the EC50 at S1P3 and on S1P1 [1] were greater than 30000 nM and 4 nM, respectively. Further, affinity on S1P1 [2] was put at a Ki of 8 nM.

On to `CC1CCCCN1c1ccc(-c2nc(-c3ccccc3OC(F)(F)F)no2)cc1C(F)(F)F` (stereo not drawn) [Compound I34, 2-methyl-1-[4-{3-[2-(trifluoromethoxy)phenyl]-1,2,4-oxadiazol-5-yl}-2-(trifluoromethyl)phenyl]piperidine], for which the EC50 on S1P3 was greater than 20000 nM; on S1P1 [1], 6 nM. The molecule further displayed a Ki at S1P1 [2] of 5 nM.

In the case of `COc1ccccc1-c1noc(-c2ccc(N3CCOCC3)c(C(F)(F)F)c2)n1` [Compound I18, 4-[4-[3-(2-methoxyphenyl)-1,2,4-oxadiazol-5-yl]-2-(trifluoromethyl)phenyl]morpholine], the EC50 on S1P3 is greater than 30000 nM; at S1P1 [1], 6 nM. On S1P1 [2], this molecule yielded a Ki of 7 nM.

Take `Cc1ccccc1-c1ccc(-c2nc(-c3ccccc3OC(F)(F)F)no2)cc1C(F)(F)F` [Compound I55, 5-[2′-methyl-2-(trifluoromethyl)biphenyl-4-yl]-3-[2-(trifluoromethoxy)phenyl]-1,2,4-oxadiazole]: the EC50 on S1P3 was greater than 30000 nM; at S1P1 [1], 2 nM. In addition, the Ki on S1P1 [2] came to 8 nM.

Turning to `COc1ccc(F)cc1-c1noc(-c2ccc(-c3ccccc3C)c(CN(C)C)c2)n1` [Compound I78, 1-{4-[3-(5-fluoro-2-methoxyphenyl)-1,2,4-oxadiazol-5-yl]-2′-methylbiphenyl-2-yl}-N,N-dimethylmethanamine], the EC50 came out at 92 nM at S1P3 and 2 nM at S1P1 [1]. Moreover, the Ki on S1P1 [2] came out at 4 nM.

Take `COc1ccccc1-c1noc(-c2ccc(N3CCCCC3C)c(C(F)(F)F)c2)n1` (stereo not drawn) [Compound I35, 1-[4-[3-(2-methoxyphenyl)-1,2,4-oxadiazol-5-yl]-2-(trifluoromethyl)phenyl]-2-methylpiperidine]: the results for the EC50 on S1P3 and on S1P1 [1] were 650 nM and 2 nM, respectively. Further, at S1P1 [2], the Ki amounted to 3 nM.

As to `COc1ccccc1-c1noc(-c2ccc(-c3cscc3C)c(C)c2)n1` [Compound I25, 3-(2-methoxyphenyl)-5-[3-methyl-4-(4-methyl-3-thienyl)phenyl]-1,2,4-oxadiazole], the EC50 came out at 5490 nM at S1P3 and 9 nM on S1P1 [1]. Moreover, on S1P1 [2], affinity was put at a Ki of 3 nM.

Consider `COc1ccc(F)cc1-c1noc(-c2ccc(N3CCCCC3C)c(C(F)(F)F)c2)n1` (stereo not drawn) [Compound I63, 1-[4-[3-(5-fluoro-2-methoxyphenyl)-1,2,4-oxadiazol-5-yl]-2-(trifluoromethyl)phenyl]-2-methylpiperidine], for which the concentration giving a half-maximal response (EC50) came to 125 nM at S1P3 and 1 nM at S1P1 [1]. Affinity at S1P1 [2] was put at a Ki of 3 nM.

For `COc1ccccc1-c1noc(-c2ccc(N3CCOCC3)c([N+](=O)[O-])c2)n1` [Compound I2, 4-{4-[3-(2-methoxyphenyl)-1,2,4-oxadiazol-5-yl]-2-nitrophenyl}morpholine], the EC50 is greater than 30000 nM at S1P3 and 51 nM at S1P1 [1]. This molecule also returned an inhibitory constant (Ki) at S1P1 [2] of 18 nM.

Regarding `Cc1cc(-c2nc(-c3ccccc3OC(F)(F)F)no2)ccc1-c1cscc1C` [Compound I44, 5-[3-methyl-4-(4-methyl-3-thienyl)phenyl]-3-[2-(trifluoromethoxy)phenyl]-1,2,4-oxadiazole], the EC50 on S1P3 was greater than 20000 nM; on S1P1 [1], 3 nM. Also, the Ki on S1P1 [2] stood at 5 nM.

For the molecule `Cc1cc(-c2nc(-c3ccccc3OC(F)(F)F)no2)ccc1-c1ccccc1C(F)(F)F` [Compound I23, 5-[2-methyl-2′-(trifluoromethyl)biphenyl-4-yl]-3-[2-(trifluoromethoxy)phenyl]-1,2,4-oxadiazole], the EC50 on S1P3 was greater than 30000 nM; at S1P1 [1], 10 nM. For the same molecule, the affinity at S1P1 [2] corresponds to a Ki of 16 nM.

As for `COc1ccc(F)cc1-c1noc(-c2ccc(-c3ccccc3C)c(CO)c2)n1` [Compound I77, {4-[3-(5-fluoro-2-methoxyphenyl)-1,2,4-oxadiazol-5-yl]-2′-methylbiphenyl-2-yl}methanol], the EC50 was 5610 nM on S1P3 and 65 nM on S1P1 [1]. The molecule also displayed a Ki at S1P1 [2] of 53 nM.
